Measurements published in patent publication US12421237B2, “Pesticidally active heterocyclic derivatives with sulfur containing substituents” (SYNGENTA PARTICIPATIONS AG, priority 2016, dated 2025).

Legend:
Type in all cases: in vivo
[1] = system: Bemisia tabaci (Cotton White Fly); test: Bemisia tabaci (Cotton White Fly): Feeding/Contact Activity; details: foliar, 144 h, application rate of 200 ppm, cotton leaf discs sprayed, adult white flies, 6 days after incubation
Description: Cotton leaf discs were placed on agar in 24-well microtiter plates and sprayed with aqueous test solutions prepared from 10,000 ppm DMSO stock solutions. After drying the leaf discs were infested with adult white flies. The samples were checked for mortality 6 days after incubation.

[2] = system: Diabrotica Balteata (Corn Root Worm); test: Diabrotica balteata (Corn Root Worm) maize sprout spray test; details: 96 h, application rate of 200 ppm, maize sprouts sprayed, L2 larvae, 4 days after infestation, read-out: effect in at least one of the two categories (mortality or growth inhibition)
Description: Maize sprouts placed onto an agar layer in 24-well microtiter plates were treated with aqueous test solutions prepared from 10,000 ppm DMSO stock solutions by spraying. After drying, the plates were infested with L2 larvae (6 to 10 per well). The samples were assessed for mortality and growth inhibition in comparison to untreated samples 4 days after infestation.

[3] = system: Euschistus heros (Neotropical Brown Stink Bug); test: Euschistus heros (Neotropical Brown Stink Bug) soybean leaf spray test; details: 120 h, application rate of 200 ppm, soybean leaves sprayed, N2 nymphs, 5 days after infestation, read-out: effect in at least one of the two categories (mortality or growth inhibition)
Description: Soybean leaves on agar in 24-well microtiter plates were sprayed with aqueous test solutions prepared from 10,000 ppm DMSO stock solutions. After drying the leaves were infested with N2 nymphs. The samples were assessed for mortality and growth inhibition in comparison to untreated samples 5 days after infestation.

[4] = system: Frankliniella occidentalis (Western Flower Thrips); test: Frankliniella occidentalis (Western Flower Thrips): Feeding/Contact Activity; details: foliar, 168 h, application rate of 200 ppm, sunflower leaf discs sprayed, population of mixed ages, 7 days after infestation
Description: Sunflower leaf discs were placed on agar in 24-well microtiter plates and sprayed with aqueous test solutions prepared from 10,000 DMSO stock solutions. After drying the leaf discs were infested with a Frankliniella population of mixed ages. The samples were assessed for mortality 7 days after infestation.

[5] = system: Myzus persicae (Green Peach Aphid); test: Myzus persicae (Green Peach Aphid): Feeding/Contact Activity; details: foliar, 144 h, application rate of 200 ppm, sunflower leaf discs sprayed, aphid population of mixed ages, 6 days after infestation
Description: Sunflower leaf discs were placed onto agar in a 24-well microtiter plate and sprayed with aqueous test solutions prepared from 10,000 ppm DMSO stock solutions. After drying, the leaf discs were infested with an aphid population of mixed ages. The samples were assessed for mortality 6 days after infestation.

[6] = system: Myzus persicae (Green Peach Aphid); test: Myzus persicae (Green Peach Aphid). Systemic Activity; details: 144 h, test rate of 24 ppm, roots of infested pea seedlings in test solution, 6 days
Description: Roots of pea seedlings infested with an aphid population of mixed ages were placed directly into aqueous test solutions prepared from 10,000 DMSO stock solutions. The samples were assessed for mortality 6 days after placing seedlings into test solutions.

[7] = system: Plutella xylostella (Diamond Back Moth); test: Plutella xylostella (Diamond Back Moth) artificial diet test; details: 120 h, application rate of 200 ppm, L2 larvae, 5 days after infestation, read-out: effect in at least one of the two categories (mortality or growth inhibition)
Description: 24-well microtiter plates with artificial diet were treated with aqueous test solutions prepared from 10,000 ppm DMSO stock solutions by pipetting. After drying, the plates were infested with L2 larvae (10 to 15 per well). The samples were assessed for mortality and growth inhibition in comparison to untreated samples 5 days after infestation.

[8] = system: Spodoptera littoralis (Egyptian Cotton Leaf Worm); test: Spodoptera littoralis (Egyptian Cotton Leaf Worm) systemic lettuce test; details: 144 h, test rate of 12.5 ppm, compound in agar taken up by lettuce roots, eggs, 6 days after infestation, read-out: effect in at least one of the three categories (mortality, anti-feeding, or growth inhibition)
Text: Test compounds were applied by pipette from 10,000 ppm DMSO stock solutions into 24-well plates and mixed with agar. Lettuce seeds were placed onto the agar and the multi well plate was closed by another plate which contained also agar. After 7 days the compound was absorbed by the roots and the lettuce grew into the lid plate. The lettuce leaves were then cut off into the lid plate. Spodoptera eggs were pipetted through a plastic stencil onto a humid gel blotting paper and the lid plate was closed with it. The samples were assessed for mortality, anti-feedant effect and growth inhibition in comparison to untreated samples 6 days after infestation.

CCS(=O)(=O)c1cc(C2(C#N)CC2)cnc1-c1nc2cc(C(F)(F)F)nnc2n1C [Example H-1, 1-[5-Ethylsulfonyl-6-[7-methyl-3-(trifluoromethyl)imidazo[4,5-c]pyridazin-6-yl]-3-pyridyl]cyclopropanecarbonitrile]
≥ 80%: mortality at 200 ppm [1] | percent effect (mortality or growth inhibition) at 200 ppm [2] | percent effect (mortality or growth inhibition) at 200 ppm [3] | mortality at 200 ppm [4] | mortality at 200 ppm [5] | mortality at 24 ppm [6] | percent effect (mortality or growth inhibition) at 200 ppm [7] | percent effect (mortality, anti-feeding or growth inhibition) at 12.5 ppm [8]

CCSc1cc(C2(C#N)CC2)cnc1-c1nc2cc(C(F)(F)F)nnc2n1C [Example H-2, 1-[5-ethylsulfanyl-6-[7-methyl-3-(trifluoromethyl)imidazo[4,5-c]pyridazin-6-yl]-3-pyridyl]cyclopropanecarbonitrile]
≥ 80%: percent effect (mortality or growth inhibition) at 200 ppm [2] | percent effect (mortality or growth inhibition) at 200 ppm [3] | mortality at 200 ppm [4] | percent effect (mortality or growth inhibition) at 200 ppm [7]
